Reference: US20190231771A1, “METHODS FOR TREATMENT AND PREVENTION OF OPIOID INDUCED CONSTIPATION USING ORAL COMPOSITIONS OF METHYLNALTREXONE” (Salix Pharmaceuticals, Ltd., priority 2011, published 2019)

Legend:
Assay type in all cases: in vivo, human
[1] = system: subjects with chronic non-malignant pain who have Opioid Induced Constipation (OIC); experiment: Phase 3 randomized double-blind placebo-controlled study of Oral Methylnaltrexone for OIC
Procedure: A phase 3, multicenter, randomized, double-blind, placebo-controlled, parallel-group study of OM for the treatment of OIC in approximately 802 subjects with chronic non-malignant pain was conducted.
Constipation due to opioid use during the screening period: Constipation is defined as <3 Rescue-Free Bowel Movements (RFBMs) per week on average (no laxative use within 24 hours prior to bowel movement) that were associated with 1 or more of the following (based on subject's diary report): • a. A Bristol Stool Form Scale type 1 or 2 for at least 25% of the rescue-free bowel movements. • b. Straining during at least 25% of the rescue-free bowel movements. • c. A sensation of incomplete evacuation after at least 25% of the rescue-free bowel movements.
Subjects who remained eligible at the baseline visit (day 1) were randomly assigned to either OM tablet formulation 150 mg, 300 mg, 450 mg, or placebo initially in a 1:1:1:1 allocation ratio. Subjects were required to take three tablets per day, first thing in the morning on an empty stomach (prior to breakfast). Subjects were instructed to swallow the tablets whole and never to chew, divide, or crush them and wait at least one half hour before ingesting any food. Subjects participated in the study for up to 84 days. The first 28 days were once daily dosing; the remaining 56 days were dosing as needed (PRN). Dosing remained double-blind throughout the 12 week period (84 days). The 84 day treatment period were followed by a 14-day post-treatment follow-up period (±2 days). Enrollment continued until a total of approximately 802 subjects have been randomized and dosed.
At the baseline visit, subjects were randomly assigned to either OM or placebo. Subjects who met all inclusion and no exclusion criteria at the baseline visit (day 1) received study medication. All doses were to be taken in the morning prior to breakfast [The first dose administered at the baseline visit could have been taken after Noon (12:00 pm)] and subjects were instructed to wait at least one half hour before ingesting any food. Subjects participated in the study for up to 84 days: the first 28 days were double-blind once daily dosing; the remaining 56 days were double-blind PRN dosing.
The primary efficacy endpoint of this Phase 3 study was the average proportion of rescue-free laxation responses per subject within 4 hours of all doses during the first four weeks of dosing. The key secondary efficacy endpoints in hierarchical order were:
1. Change in weekly number of RFBM from baseline during Weeks 1 to 4
2. Response (responder/non-responder) to study drug during Weeks 1 to 4, where responder was defined as having ≥3 RFBM/week, with at least 1 RFBM/week increase over baseline, for at least 3 out of the first 4 weeks.
The primary efficacy endpoint was the average proportion of rescue-free laxation responses per subject within 4 hours of all doses during the first 4 weeks of dosing.
The two key secondary efficacy endpoints in hierarchical order were: • 1. Change in weekly number of RFBMs from baseline over the entire first 4 weeks (28 days) of dosing. • 2. Response (responder/non-responder) to study drug during Weeks 1 to 4, where responder is defined as having […], with at least 1 RFBM/week increase over baseline, for at least 3 out of the first 4 weeks. […]

[2] = Study B: single and multiple dose pharmacokinetics after 20-minute intravenous infusion of 24 mg methylnaltrexone; conditions: 24 mg IV infusion; for AUC(0-inf) / Cmax: iv, 24 mg; for Cmax: read-out: Cmax
Procedure: (§1) Presented herein is a clinical pharmacokinetics study, Study C, as well as Studies A and B. Study A investigated the single and multiple dose pharmacokinetics of methylnaltrexone (MNTX) and its metabolites (M2: methylnaltrexone sulfate; M4: 6α-methylnaltrexol; and M5: 6β-methylnaltrexol) following the subcutaneous administration of 12 mg methylnaltrexone. In Study B, the single and multiple dose pharmacokinetics of methylnaltrexone (MNTX) and its metabolites (M2, M4, and M5) were examined following a 20-minute short intravenous infusion of 24 mg of methylnaltrexone (MNTX).
(§2) Pharmacokinetic parameters included Cmax, AUCt, AUCinf, tmax, t1/2, % Re24, accumulation factor (R) as defined below and metabolite/parent drug ratio.
(§3) R=Accumulation Factor(based on AUC0-24(ng·h/mL):Day 7 AUC AUC0-24/Day 1 AUC0-24
(§4) Metabolite-Parent Drug ratio(based on ng·h/mL)(%)=100*(Metabolite AUC24/MNTX AUC24)
(§5) Note: AUCinf was used in place of AUC AUC0-24 for R and Metabolite-Parent Drug ratio computations following IV administration.

[3] = Study A: single and multiple dose pharmacokinetics after subcutaneous 12 mg methylnaltrexone; conditions: for AUC(0-t) / Cmax: sc, 12 mg; for AUC(0-t): read-out: AUC0-24; for Cmax: read-out: Cmax
Procedure: as §1, §2, §3, §4, §5

[4] = 150 mg, 300 mg and 450 mg daily oral vs placebo
[5] = human, plasma, 12 mg SC Injection, Day 1, mean
[6] = human, plasma, 12 mg SC Injection, Day 7, mean

In the case of C[N@+]1(CC2CC2)CC[C@]23c4c5ccc(O)c4O[C@H]2C(=O)CC[C@@]3(O)[C@H]1C5.[Br-] [MNTX, (R)—N-(cyclopropylmethyl) noroxymorphone methobromide], the “primary efficacy endpoint: average proportion of rescue free bowel movements per subject within 4 hours of all doses during the first 4 weeks of dosing” value [1, 4] is reported as “demonstrate efficacy”, the “secondary efficacy endpoints: change in weekly number of RFBMs from baseline weeks 1-4; response to study drug” value [1, 4] is reported as “further demonstrate efficacy” and the adverse events ([1]; dosages of 150 mg, 300 mg and 450 mg) is reported as “did not result in adverse events”. For the same compound, the “proportion of subjects with rescue free bowel movements within 4 hours of the first dose” value ([1]; first dose of study drug) was “further confirmed efficacy”, the “laxation effects, fasted compared to non-fasted subjects” value ([1]; phase 3 study, following the first dose of study drug) was “increased in fasted subjects compared to non-fasted subjects” and the “R (IV), accumulation factor” value ([2]; AUCinf used) was 1.17. It also gave an AUC(0-inf) ([2]; human, in vivo, Day 1, mean) of 0.396 µg·h/mL, a Cmax ([2]; human, in vivo, Day 1, mean) of 0.533 µg/mL and an AUC(0-inf) ([2]; human, in vivo, Day 7, mean) of 0.375 µg·h/mL. The Cmax ([2]; human, in vivo, Day 7, mean) was 0.52 µg/mL, the half-life ([2]; human, in vivo, day not given) was 10.8 h and the AUC(0-t) ([2]; human, in vivo, day not given, mean, read-out: AUC0-6) was 0.326 µg·h/mL. The AUCinf ([3]; 12 mg SC Injection, Day 7, mean) was 0.223 µg·h/mL, the “R (SC), accumulation factor” value ([3]; 12 mg SC Injection, AUC0-24 on Day 7/AUC0-24 on Day 1) was 1.05 and the AUC(0-t) [3, 5] was 0.218 µg·h/mL. For the same compound, the Cmax [3, 5] was 0.14 µg/mL, the AUC(0-t) [3, 6] was 0.223 µg·h/mL and the Cmax [3, 6] was 0.119 µg/mL. The bioavailability ([3]; human, plasma, subcutaneous, 12 mg SC vs 24 mg IV infusion, cross-study, read-out: bioavailability of subcutaneous injection relative to short-term infusion) was 112%, the AUC(0-inf) [3, 5] was 0.223 µg·h/mL and the Tmax ([3]; human, plasma, 12 mg SC Injection, Day 1, median, read-out: Tmax) was 0.25 h. It also gave a half-life ([3]; human, plasma, 12 mg SC Injection, day not given, harmonic mean) of 5.33 h.
